Laboratory results as given in patent US20160000787A1, “INHIBITORS OF CDK8/19 FOR USE IN TREATING ESTROGEN RECEPTOR POSITIVE BREAST CANCER” (SENEX BIOTECHNOLOGY, INC., priority 2013, published 2016).

Tests used:
Type in all cases: cell-based
BT474 cells [1] = assay: Growth inhibition, 6-day treatment, Coulter counter; settings: 6 days
From the text: (§1) Both MCF7-1pE and MCF7-Veh are resistant to tamoxifen and MCF7-Veh is also resistant to fulvestrant.

MCF7 cells [2] = assay: as above; settings: 6 days
From the text: as §1

MCF7-1pE cells [3] = assay: as above; settings: 6 days
From the text: as §1

MCF7-Veh cells [4] = assay: as above; settings: 6 days
From the text: as §1

T47D cells [5] = assay: as above; settings: 6 days
From the text: as §1

[6] = test system: estrogen-depleted MCF7 cells; assay: Estrogen (E2) mitogenic stimulation assay, flow cytometric cell counting; settings: for decrease of cell number: 4 days after E2 addition, fulvestrant 1 nM and/or Senexin A 1 μM; for effect on E2-stimulated cell growth: 10 nM E2
Method: To test the effect of CDK8/19 inhibition on the mitogenic effect of estrogen in estrogen-responsive BrCa cells, MCF7 cells (ER+BrCa line) were placed into estrogen-depleted phenol red-free media with 10% charcoal-stripped serum. Under these conditions cells are largely but not completely estrogen-depleted (full depletion would require adapting the cells to low serum, since the cells can synthesize estrogen from serum components). Cells were then plated in the presence or absence of Senexin A (at 1 μM and 5 μM concentrations), and either 10 nM of the estrogen 17-β-estradiol (E2) or vehicle control were added on the following day. Cell growth was measured by flow cytometric counting of live (PI-negative) and dead (PI-positive) cells over 4 days.
The interaction between Senexin A and fulvestrant in MCF7 cells was investigated in the estrogen (E2) mitogenic stimulation assay, carried out as described in example 1, with the cell number measured by flow cytometry 4 days after E2 addition.

BT474 cells [7] = assay: Time course of cell growth over 7 days, Coulter counter; settings: different concentrations
From the text: (§2) Senexin A alone inhibited cell growth, with the strongest effects observed in the estrogen-dependent lines T47D and parental MCF7 and the weakest effects in cell lines that are fully or partially estrogen-independent (MCF7-Veh, MCF7-1p).

MCF7 cells [8] = assay: as above; settings: different concentrations
From the text: as §2

T47D cells [9] = assay: as above; settings: different concentrations
From the text: as §2

MCF7-1pE cells [10] = assay: Long-term (11-day) drug treatment, crystal violet staining
MCF7-Veh cells [11] = assay: as above
[12] = test system: CXCL12 expression in estrogen-depleted MCF7 cells; assay: QPCR analysis of estrogen-inducible gene expression; settings: two concentrations of Senexin A, with or without E2
From the text: (§3) Rae et al., (2005) used microarray profiling to analyze the effects of E2 and ER antagonists on gene expression in three ER+BrCa cell lines, MCF7, T47D and BT-474. […] The cytokine CXCL12 was also shown to mediate the mitogenic effect of E2 (Sauve et al., 2009) and, together with its receptor CXCR4, to be a key determinant of metastasis in cancers of the breast and other organs (Muller et al., 2001; Rhodes et al., 2011). […] The effect of Senexin A on CXCL12, a known mediator of metastasis, is of particular interest as a possible cause of the association of CDK8 expression with shorter RFS.

[13] = test system: GREB1 expression in estrogen-depleted MCF7 cells; assay: as above; settings: two concentrations of Senexin A, with or without E2
From the text: as §3

[14] = test system: TFF1 expression in estrogen-depleted MCF7 cells; assay: as above; settings: two concentrations of Senexin A, with or without E2
From the text: as §3

[15] = test system: ER-dependent ERE-containing promoter in T47D-ER/Luc cells; assay: ER-dependent ERE promoter luciferase reporter assay; settings: different concentrations; 10 nM E2 added 1 h later; read 18 hrs later
Method: To determine whether the effect of CDK8 on ER-inducible gene expression is mediated through inhibition of the transcriptional effect of ER, which is exerted through ER binding to the ERE promoter element, a T47D-based reporter cell line was used. The cell line T47D-ER/Luc (obtained from Signosis) expresses firefly luciferase from the ER-dependent ERE-containing promoter. The reporter cell line was estrogen-depleted, then Senexin A was added at different concentrations, and one hour later 10 nM E2 was added. 18 hrs later, cells were counted and luciferase activity was measured.

[16] = Homo sapiens, 144 h, FUL 1 nM, alone or with SenA 5 μM, read-out: % growth inhibition relative to control
[17] = Homo sapiens, 144 h, FUL 10 nM, alone or with SenA 5 μM, read-out: % growth inhibition relative to control
[18] = 144 h, FUL 1 nM, alone or with SenA 5 μM, read-out: % growth inhibition relative to control
[19] = 144 h, FUL 10 nM, alone or with SenA 5 μM, read-out: % growth inhibition relative to control
[20] = Homo sapiens, 144 h, TAM 1 μM, alone or with SenA 5 μM, read-out: % growth inhibition relative to control
[21] = Homo sapiens, 144 h, TAM 5 μM, alone or with SenA 5 μM, read-out: % growth inhibition relative to control
[22] = 144 h, TAM 1 μM, alone or with SenA 5 μM, read-out: % growth inhibition relative to control
[23] = 144 h, TAM 5 μM, alone or with SenA 5 μM, read-out: % growth inhibition relative to control

SMILES: C[C@]12CC[C@@H]3c4ccc(O)cc4C[C@@H](CCCCCCCCC[S+]([O-])CCCC(F)(F)C(F)(F)F)[C@H]3[C@@H]1CC[C@@H]2O (stereo partly shown) [FUL, fulvestrant]
- inhibition at 0.001 µM (BT474 cells [1]; Homo sapiens, BT-474, 144 h, FUL 1 nM, alone or with SenA 5 μM, read-out: % growth inhibition relative to control): 17.7%
- inhibition at 0.01 µM (BT474 cells [1]; Homo sapiens, BT-474, 144 h, FUL 10 nM, alone or with SenA 5 μM, read-out: % growth inhibition relative to control): 22.6%
- inhibition at 0.001 µM (MCF7 cells [2]; [16]): 62%
- inhibition at 0.01 µM (MCF7 cells [2]; [17]): 63.6%
- inhibition at 0.001 µM (MCF7-1pE cells [3]; [18]): 49.7%
- inhibition at 0.01 µM (MCF7-1pE cells [3]; [19]): 57.2%
- inhibition at 0.001 µM (MCF7-Veh cells [4]; [18]): 12.4%
- inhibition at 0.01 µM (MCF7-Veh cells [4]; [19]): 28%
- inhibition at 0.001 µM (T47D cells [5]; [16]): 56.5%
- inhibition at 0.01 µM (T47D cells [5]; [17]): 58.2%
- decrease of cell number [6]: 27%

SMILES: N#Cc1ccc2ncnc(NCCc3ccccc3)c2c1 [Senexin A]
- % growth inhibition relative to control (BT474 cells [1]; SenA 5 μM): 23.9%
- % growth inhibition relative to control (MCF7 cells [2]; SenA 5 μM): 37%
- % growth inhibition relative to control (MCF7-1pE cells [3]; SenA 5 μM): 19.1%
- % growth inhibition relative to control (MCF7-Veh cells [4]; SenA 5 μM): 15.5%
- % growth inhibition relative to control (T47D cells [5]; SenA 5 μM): 48%
- effect on E2-stimulated cell growth ([6]; 1 μM Senexin A, over 4 days): partial effect
- effect on E2-stimulated cell growth ([6]; 5 μM Senexin A, over 4 days): abolished
- effect on cell growth without E2 addition ([6]; 5 μM Senexin A, no E2, over 4 days): inhibited cell growth without E2 addition but to a lesser extent
- decrease of cell number [6]: 5%
- nature of effect / induction of cell death (PI-positive cells) ([6]; Senexin A 1 μM and 5 μM, over 4 days): cytostatic and were not associated with any significant induction of cell death
- growth inhibition, time course (BT474 cells [7]): concentration-dependent growth inhibition
- growth inhibition, time course (MCF7 cells [8]): concentration-dependent growth inhibition
- growth inhibition, time course (T47D cells [9]): concentration-dependent growth inhibition
- potentiation of fulvestrant effects (MCF7-1pE cells [10]): especially apparent
- potentiation of fulvestrant effects (MCF7-Veh cells [11]): especially apparent
- CXCL12 expression (QPCR) [12]: inhibited
- GREB1 expression (QPCR) [13]: inhibited
- TFF1 expression (QPCR) [14]: inhibited
- transcription from ER-dependent promoter (luciferase activity) [15]: strongly inhibited

SMILES: CN1CCN(C(=O)c2ccc3cc(CCNc4ncnc5ccc(C#N)cc45)ccc3c2)CC1 [Senexin B]
- growth inhibition, time course (BT474 cells [7]): concentration-dependent growth inhibition
- growth inhibition, time course (MCF7 cells [8]): concentration-dependent growth inhibition
- growth inhibition, time course (T47D cells [9]): concentration-dependent growth inhibition

SMILES: CC/C(=C(\c1ccc(O)cc1)c1ccc(OCCN(C)C)cc1)c1ccccc1 [TAM, 4-OH tamoxifen]
- inhibition at 1 µM (BT474 cells [1]; Homo sapiens, BT-474, 144 h, TAM 1 μM, alone or with SenA 5 μM, read-out: % growth inhibition relative to control): 28.8%
- inhibition at 5 µM (BT474 cells [1]; Homo sapiens, BT-474, 144 h, TAM 5 μM, alone or with SenA 5 μM, read-out: % growth inhibition relative to control): 42.3%
- inhibition at 1 µM (MCF7 cells [2]; [20]): 34.8%
- inhibition at 5 µM (MCF7 cells [2]; [21]): 50.7%
- inhibition at 1 µM (MCF7-1pE cells [3]; [22]): -1.3%
- inhibition at 5 µM (MCF7-1pE cells [3]; [23]): 1.5%
- inhibition at 1 µM (MCF7-Veh cells [4]; [22]): 2.6%
- inhibition at 5 µM (MCF7-Veh cells [4]; [23]): 1%
- inhibition at 1 µM (T47D cells [5]; [20]): 54.6%
- inhibition at 5 µM (T47D cells [5]; [21]): 62.3%
